Assay results published in US20120065365A1, “Stable Radiopharmaceutical Compositions and Methods for Their Preparation” (BRACCO IMAGING S.P.A., priority 2003, published 2012).
Read-outs that look alike come from different tables or passages of the source.

Columns and labels:
[1] = Effect of contaminant zinc on ^177Lu-B labeling with PDTC in reaction buffer (Example 20); type: physicochemical; conditions: Sample 2: COMPOUND B with ^177Lu in the presence of zinc and PDTC (COMPOUND B:^177Lu:Zinc 3:1:3)
Protocol: The injection volume was 10 μL.
At times, ^177LuCl3 isotope solutions are contaminated with non-radioactive metals that can interfere with radiolabeling. These metals (which may include, for example Zn, Cu, Ca and Fe among others), can compete with ^177Lu for the chelator, thus lowering reaction yields by consuming ligand so it is unavailable for chelation to ^177Lu.
A 10-mg/mL solution of 1pyrrolidine dithiocarbamic acid ammonium salt was prepared by dissolving it in sodium acetate buffer (0.2 M, pH 4.8). To a lead-shielded, 300-μL sample vial was added 86.5 μL of the NaOAc buffer solution, 13.7 mCi ^177LuCl3, 0.6525 μg zinc (6.52 μL of a 100-μg/mL zinc plasma standard solution) and 15 μg COMPOUND B (dissolved in water). This was labeled as ‘Sample 1’. To another lead-shielded, 300-μL sample vial was added 86.5 μL of the […] 1-pyrrolidine dithiocarbamic acid ammonium salt/NaOAc buffer solution, 13.8 mCi ^177LuCl3, 0.6525 μg zinc and 15 μg COMPOUND B. This was labeled as ‘Sample 2’. The concentration of COMPOUND B in each sample was 150 μg/mL and the molar ratio of COMPOUND B:^177Lu:Zinc for each sample was 3:1:3. The samples were heated to 100° C. for 5 min, and then cooled for 5 min in an ambient-temperature water bath. To each sample, 10 μL of 2% Na2EDTA.2H2O in water was added, and then each was analyzed by HPLC, using HPLC Method 5.

[2] = type: physicochemical
Protocol: The injection volume was 20 μL.
Solutions of 1-pyrrolidine dithiocarbamic acid ammonium salt (PDTC) were prepared at concentrations of 20-, 10-, 5- and 1 mg/mL by dissolving it in a sodium acetate (NaOAc) buffer solution (0.2 M, pH 4.8). To lead-shielded 300-μL sample vials were added, individually, 50-μL aliquots of the PDTC-NaOAc butter solutions, including an aliquot of the NaOAc buffer only, to serve as a control sample. To each buffer aliquot was added 9.95 mCi ^177LuCl3 (avg) and 17.2 μg COMPOUND A (dissolved in water). The molar ratio of COMPOUND A:Lu (total Lu) for each sample was 3:1. During the reaction, in each sample, the concentration of COMPOUND A was 287-μg/mL and the activity concentration was 167-mCi/mL. The samples wore heated to 100° C. for 5 minutes, then cooled for 5 minutes in an ambient-temperature water bath. To each sample, 10 μL of 2% EDTA in water was added, and then each was analyzed by HPLC (Method 3) over 48 hours. At t=0, the radioactivity concentration was 143 mCi/mL.

[3] = type: physicochemical; remark: listed apart in the source
[4] = type: physicochemical; remark: listed apart in the source
Protocol: The ratio of COMPOUND A to Lutetium was 3:1 for all samples. The reaction mixtures were heated, cooled, treated with Na2EDTA.2H2O and analyzed by HPLC as described in Example 13, and then stored at room temperature for 24 hours, at which time all samples were analyzed again.

[5] = ^177Lu-A prepared with PDTC 1 mg/mL (0.05 mg)
[6] = ^177Lu-A prepared with PDTC 5 mg/mL (0.25 mg)
[7] = ^177Lu-A prepared with PDTC 10 mg/mL (0.5 mg)
[8] = ^177Lu-A prepared with PDTC 20 mg/mL (1 mg)

N.S=C(S)N1CCCC1 [PDTC, 1-pyrrolidine dithiocarbamic acid ammonium salt]
RCP [1]: 100% | RCP (%) 0-h ([2]; ^177Lu-A 143 mCi/mL at t=0, prepared with PDTC 1 mg/mL (0.05 mg)): 100% | RCP (%) 0-h ([2]; ^177Lu-A 143 mCi/mL at t=0, prepared with PDTC 5 mg/mL (0.25 mg)): 100% | RCP (%) 0-h ([2]; ^177Lu-A 143 mCi/mL at t=0, prepared with PDTC 10 mg/mL (0.5 mg)): 100% | RCP (%) 0-h ([2]; ^177Lu-A 143 mCi/mL at t=0, prepared with PDTC 20 mg/mL (1 mg)): 100% | RCP (%) 3-h [2, 5]: 100% | RCP (%) 6-h [2, 5]: 17.2% | RCP (%) 12-h [2, 5]: 0% | RCP (%) 24-h [2, 5]: 0% | RCP (%) 3-h [2, 6]: 100% | RCP (%) 6-h [2, 6]: 100% | RCP (%) 12-h [2, 6]: 100% | RCP (%) 24-h [2, 6]: 0% | RCP (%) 3-h [2, 7]: 100% | RCP (%) 6-h [2, 7]: 100% | RCP (%) 12-h [2, 7]: 100% | RCP (%) 24-h [2, 7]: 100% | RCP (%) 48-h [2, 7]: 100% | RCP (%) 3-h [2, 8]: 100% | RCP (%) 6-h [2, 8]: 100% | RCP (%) 12-h [2, 8]: 100% | RCP (%) 24-h [2, 8]: 100% | RCP (%) 48-h [2, 8]: 100% | RCP for up to 48 hours ([2]; ^177Lu-A, PDTC at 20 mg/mL): 100% | (% RCP) 6-h ([3]; ^177Lu-B (44-53 mCi) formulated with 5 mg stabilizing compound, 6 h): 94.7% | (% RCP) 24-h ([3]; ^177Lu-B (44-53 mCi) formulated with 5 mg stabilizing compound, 24 h): 94.0% | (% RCP) 0-h ([3]; ^177Lu-B (44-53 mCi) formulated with 5 mg stabilizing compound, diluted to ~2 mL, ~6° C. above room temperature, 0 h): 95.0% | RCP Drop over 24 hr ([3]; ^177Lu-B formulated with 5 mg stabilizing compound, 0 to 24 h): 1% | RCP % t = 0 h ([4]; ^177Lu-A (4.65-5.64 mCi) prepared in presence of stabilizer 5 mg/mL, 0 h): 100% | RCP % t = 24 h ([4]; ^177Lu-A prepared in presence of stabilizer 5 mg/mL, room temperature, 24 h): 99.9%
